Reference: patent US6573247B1, “Anti-viral pyrimidine nucleoside analogues” (University College Cardiff Consultants Limited, priority 1997, dated 2003)
Entries after “also recorded” stand apart in the source; their conditions may differ. Where two headings read alike, the source gives them in different places.

Legend:
HSV-1 = conditions: cited from earlier work
HSV-2 = conditions: cited from earlier work
VZV = conditions: cited from earlier work
CMV = conditions: cited from earlier work
[1] = CC50 in tissue culture assay; format: cell-based, human; conditions: human
Procedure: (§1) Each of the products of Examples 1, 2, 3 and 4 was tested in vitro in tissue culture assays for potent antiviral action with respect to varicella zoster virus (VZV). Acyclovir was included in the test procedure as a control. VZV (strains OKa and YS) induced cytopathogenicity in human embryonic lung fibroblast (HEL) cells was measured 7 days post infection. EC50 was defined as the drug concentration (in μM) required to reduce virus-induced cytopathicity by 50%.
(§2) Each of the products of Examples 7 and 8 was tested in vitro in tissue culture assays for potent antiviral action with respect to varicella zoster virus (VZV). Acyclovir was included in the test procedure as a control. EC50 and CC50 values were measured as described under examples 1 to 6 above. […]

[2] = tested on: human embryonic lung fibroblast (HEL) cells; assay: CC50 in tissue culture assay; format: cell-based
Procedure: as §1, §2

cytomegalovirus (CMV) = assay: CMV induced cytopathogenicity in HEL cells (in vitro tissue culture assay); format: cell-based; conditions: for EC50: Table IV, CMV induced cytopathogenicity in HEL cells
Procedure: The product of Example 8 was additionally tested in vitro in tissue culture assays for potent antiviral action with respect to cytomegalovirus (CMV). CMV induced cytopatho-genicity in human embryonic lung fibroblast (HEL) cells was measured post infection. EC50 and CC50 were defined as above for VZV. The equivalent data for the known CMV active agent dihydroxypropyl guanine (DHPG) is included in Table IV as a control.

[3] = tested on: varicella zoster virus (VZV) (strains OKa and YS); assay: microbe, parasite or virus in culture; format: cell-based; conditions: for EC50: read-out: EC50/VZV/μM; for antiviral activity with respect to varicella zoster virus (in words): verbal assessment
Procedure: VZV (strains OKa and YS) induced cytopathogenicity in human embryonic lung fibroblast (HEL) cells was measured 7 days post infection. EC50 was defined as the drug concentration (in μM) required to reduce virus-induced cytopathicity by 50%.
The values of EC50 and CC50 were measured as above.

[4] = Table I, VZV strains OKa and YS, HEL cells, 7 days post infection, concentration reducing virus-induced cytopathicity by 50%
[5] = Table II, X = O, R chain length series, concentration reducing virus-induced cytopathicity by 50%
[6] = Table III, measured as under examples 1 to 6

O=c1nc2occc2cn1C1CC(O)C(CO)O1 (stereo not shown)
activity in in vitro assay against HSV-1 (HSV-1): inactive
activity in in vitro assay against HSV-2 (HSV-2): inactive
activity in in vitro assay against VZV (VZV): inactive
activity in in vitro assay against CMV (CMV): inactive

Nc1nc2c(ncn2COCCO)c(=O)[nH]1 [Acyclovir, reference compound]
CC50 [1]: > 100000 nM
CC50 ([2]; human): > 100 µM

Nc1nc2c(ncn2COC(CO)CO)c(=O)[nH]1 [DHPG, dihydroxypropyl guanine, reference compound]
CC50 [2]: > 200 µM
EC50 (cytomegalovirus (CMV)): 3.1 µM

CCCCCCCCCCCCc1cc2cn([C@H]3C[C@H](O)[C@@H](CO)O3)c(=O)nc2o1 [Example 1, 3-(2′-Deoxy-β-D-ribofuranosyl)-6-dodecyl-2,3dihydrofuro[2,3-d]pyrimidin-2-one]
EC50 [3, 4]: ≤ 1.2 µM
EC50 [3, 5]: ≤ 1.2 µM
antiviral activity with respect to varicella zoster virus (in words) [3]: antiviral activity comparable to acyclovir
CC50 ([2]; Table I, read-out: CC50/μM): > 200 µM

CCCCCCCCCCc1cc2cn([C@H]3C[C@H](O)[C@@H](CO)O3)c(=O)nc2o1 [Example 2, 3-(2′-Deoxy-β-D-ribofuranosyl)-6-decyl-2,3-dihydrofuro[2,3-d]pyrimidin-2-one]
EC50 [3, 4]: 0.005 µM
EC50 [3, 5]: 0.005 µM
antiviral activity with respect to varicella zoster virus (in words) [3]: extremely potent antiviral activity
CC50 [2]: > 50 µM

CCCCCCCCc1cc2cn(C3CC(O)C(CO)O3)c(=O)nc2o1 [Example 3, 3-(2′-Deoxy-β-D-ribofuranosyl)-6-octyl-2,3-dihydrofuro[2,3-d]pyrimidin-2-one]
EC50 ([3]; Human alphaherpesvirus 3, HEL, 168 h): 0.003 µM
EC50 ([3]; Human alphaherpesvirus 3, HEL): 0.03 µM
antiviral activity with respect to varicella zoster virus (in words) [3]: extremely potent antiviral activity; also recorded: antiviral activity comparable to acyclovir
CC50 [1]: > 50000 nM

CCCCCCc1cc2cn([C@H]3C[C@H](O)[C@@H](CO)O3)c(=O)nc2o1 [Example 4, 3-(2′-Deoxy-β-D-ribofuranosyl)-6-hexyl-2,3-dihydrofuro[2,3-d]pyrimidin-2-one]
EC50 [3, 4]: 1.3 µM
EC50 [3, 5]: 1.3 µM
CC50 [2]: > 200 µM

CCCCCc1cc2cn([C@H]3C[C@H](O)[C@@H](CO)O3)c(=O)nc2o1 [Example 5, 3-(2′-Deoxy-β-D-ribofuranosyl)-6-pentyl-2,3-dihydrofuro[2,3-d]pyrimidin-2-one]
EC50 [3, 5]: 3 µM

CCCCCCCc1cc2cn([C@H]3C[C@H](O)[C@@H](CO)O3)c(=O)nc2o1 [Example 6, 3-(2′-Deoxy-β-D-ribofuranosyl)-6-heptyl-2,3-dihydrofuro[2,3-d]pyrimidin-2-one]
EC50 [3, 5]: 0.17 µM

O=c1nc2oc(CCCCCCCCCO)cc2cn1[C@H]1C[C@H](O)[C@@H](CO)O1 [Example 7, 3-(2′-Deoxy-β-D-ribofuranosyl)-6-(9-hydroxynonyl)-2,3′-dihydrofuro[2,3-d]pyrimidin-2-one]
EC50 [3, 6]: 0.4 µM
CC50 [2]: > 200 µM

O=c1nc2oc(CCCCCCCCCCl)cc2cn1C1CC(O)C(CO)O1 (stereo not shown) [Example 8, 6-(9-chlorononyl)-3-(4-hydroxy-5-(hydroxymethyl)tetrahydro-2-furanyl)-2,3-dihydrofuro[2,3,-d]pyrimidin-2-one]
EC50 [3, 6]: 0.006 µM
EC50 (cytomegalovirus (CMV)): 7.2 µM
antiviral activity with respect to CMV (in words) (cytomegalovirus (CMV); verbal assessment): comparable to DHPG

O=c1nc2oc(CCCO)cc2cn1[C@H]1C[C@H](O)[C@@H](CO)O1 [Example 9, 3-(2′-Deoxy-β-D-ribofuranosyl)-6-(3-hydroxypropyl)-2,3-dihydrofuro[2,3-d]pyrimidin-2-one]
EC50 ([3]; Table V): 9.7 µM
antiviral activity with respect to varicella zoster virus (in words) [3]: low activity
CC50 [2]: > 200 µM

O=c1nc2oc(CCCCO)cc2cn1[C@H]1C[C@H](O)[C@@H](CO)O1 [Example 10, 3-(2′-Deoxy-β-D-ribofuranosyl)-6-(4-hydroxybutyl)-2,3-dihydrofuro[2,3-d]pyrimidin-2-one]
EC50 ([3]; Table V): 29 µM
antiviral activity with respect to varicella zoster virus (in words) [3]: low activity
CC50 [2]: > 200 µM

CCCCCCc1cc2cn([C@H]3C[C@H](O)[C@@H](CO)O3)c(=O)nc2[nH]1 [Example 12, 3-(2′-Deoxy-β-D-ribofuranosyl)-6-hexyl,3,7-dihydro-2H-pyrrolo[2,3-d]pyrimidin-2-one]
EC50 ([3]; Table VII): > 50 µM

CCCCCCCCc1cc2cn([C@H]3C[C@H](O)[C@@H](CO)O3)c(=O)nc2[nH]1 [Example 13, 3-(2′-Deoxy-β-D-ribofuranosyl)-6-octyl,3,7-dihydro-2H-pyrrolo[2,3-d]pyrimidin-2-one]
EC50 ([3]; Table VII): 0.15 µM

CCCCCCCCCCCCc1cc2cn([C@H]3C[C@H](O)[C@@H](CO)O3)c(=O)nc2[nH]1 [Example 14, 3-(2′-Deoxy-β-D-ribofuranosyl)-6-dodecyl-3,7-dihydro-2H-pyrollo[2,3-d]pyrimidin-2-one]
EC50 ([3]; Table VII): 3.7 µM
CC50 [2]: > 200 µM
